Among the data in patent US20020173468A1, “MODIFIED CYTOSTATIC AGENTS” (priority 1996, published 2002) are IC50 values, retold here.

Structures can show the parent of a compound that is named as a salt.

Holding throughout (format): cell-based
The test system of experiment [1] is SW 480 human colonic tumour cell line. In words: Growth inhibition test (MTT) for cytotoxic properties, SW 480. Conditions: SW 480 cells. On the procedure:
(§1) 1. Growth Inhibition Test for the Determination of Cytotoxic Properties
(§2) They were then trypsinized and taken up in RPMI plus 10% FCS to give a cell count of 50,000 cells/ml. 100 μl of cell suspension/well were added to a 96 microwell plate and incubated for 1 day at 37° C. in a CO2 incubator. A further 100 μl of RPMI medium and 1 μl of DMSO were then added with the test substances. The growth was checked after day 3 and day 6. To do this, 40 μl of MTT solution (3-(4,5-dimethylthiazol-2-yl)-2,5-diphenyl-tetrazolin bromide) were added to each microwell at a starting concentration of 5 mg/ml of H2O. Incubation was carried out at 37° C. for 5 hours in the CO2 incubator. The medium was then aspirated and 100 μl of i-propanol/well were added. After shaking for 30 min with 100 μl of H2O, the extinction was measured at 540 nm using a Titertek Multiskan MCC/340 (flow).
(§3) The cytotoxic action is indicated in Table 1 as an IC50 value in each case for the SW 480 and HT 29 and B16F10 cell lines: […]

Experiment [2] relates to HT 29 human colonic tumour cell line. In words: Growth inhibition test (MTT) for cytotoxic properties, HT 29. Conditions: HT 29 cells. On the procedure:
as §1, §2, §3

Experiment [3] has as its system B16F10 mouse melanoma cell line. Briefly: Growth inhibition test (MTT) for cytotoxic properties, B16F10. Conditions: B16F10 cells. How it is done: as §1, §2, §3

With `CC[C@@]1(OC(=O)C(CC(=O)O)NC(=O)C(CCCCNC(=S)Nc2ccc(O)cc2)NC(=S)Nc2ccc(O)cc2)C(=O)OCc2c1cc1n(c2=O)Cc2cc3ccccc3nc2-1` (stereo partly drawn) [4.22), 20-O-[N^α,N^ε-bis-(4-Hydroxy-phenylamino-thiocarbonyl)-lysyl-aspartyl]-camptothecin, sodium salt], the results for the half-inhibitory concentration (IC50) in experiment [1], in experiment [2] and in experiment [3] were 40 nM, 40 nM and 100 nM, respectively.

`CN(C(=S)NC(CCCCN)C(=O)NC1C=CCC2CN(c3c(F)cc4c(=O)c(C(=O)O)cn(C5CC5)c4c3Cl)CC21)c1ccccc1` (racemic) [2.10), N-[N^α-(Phenyl-methyl-amino-thiocarbonyl)-lysyl]-quinolone-a]: the figures for the half-maximal inhibitory concentration (IC50) in experiment [1], in experiment [2] and in experiment [3] were 2000 nM, 2000 nM and 400 nM, respectively.

On to `CC(NC(=O)C(CCCCN)NC(=S)Nc1ccc(O)cc1)C(=O)NC1C=CCC2CN(c3c(F)cc4c(=O)c(C(=O)O)cn(C5CC5)c4c3Cl)CC21` (racemic) [2.11), N-[N^α-(4-Hydroxy-phenylamino-thiocarbonyl)-lysyl-D-alanyl]-quinolone-a], for which the IC50 (as a rule, the concentration at which inhibition is half-maximal) in experiment [1] came to 60000 nM; in experiment [2] it was 150000 nM; in experiment [3], 30000 nM.

For `CC(NC(=S)Nc1ccc(O)cc1)C(=O)NC1C=CCC2CN(c3c(F)cc4c(=O)c(C(=O)O)cn(C5CC5)c4c3Cl)CC21` (racemic) [2.2), N-[N-(4-Hydroxy-phenylamino-thiocarbonyl)-D-alanyl]-quinolone-a], the figures for the 50% inhibitory concentration (IC50) in experiment [1], in experiment [2] and in experiment [3] were 15000 nM, 6000 nM and 4000 nM, respectively.

With `NCCCC(NC(=S)Nc1ccc(O)cc1)C(=O)NC1C=CCC2CN(c3c(F)cc4c(=O)c(C(=O)O)cn(C5CC5)c4c3Cl)CC21` (racemic) [2.6), N-[N^α-(4-Hydroxy-phenylamino-thiocarbonyl)-ornithyl]-quinolone-a, hydrochloride], the IC50 was 200 nM in experiment [1], 300 nM in experiment [2] and 60 nM in experiment [3].

On to `CCC1(OC(=O)[C@H](CC(C)C)NC(=O)[C@H](CCCCN)NC(=S)Nc2ccc(O)cc2)C(=O)OCc2c1cc1n(c2=O)Cc2cc3cc4c(cc3nc2-1)OCO4` (stereo partly drawn) [6), 10,11-(Methylenedioxy)-20-O-[N^α-(4-hydroxy-phenylaminothio-carbonyl)-lysyl-leucyl]-camptothecin, hydrochloride], for which the IC50 in experiment [1] turned out to be 5 nM; in experiment [2], 3 nM; in experiment [3] it was 15 nM.

With `CCC1(OC(=O)C(NC(=O)C(CCCCN)NC(=S)Nc2cccc([N+](=O)[O-])c2)C(C)C)C(=O)OCc2c1cc1n(c2=O)Cc2cc3ccccc3nc2-1` (stereo not drawn) [4.17), 20-O-[N^α-(3-Nitro-phenylamino-thiocarbonyl)-lysyl-valyl]-camptothecin, hydrochloride], the IC50 in experiment [1] was 300 nM; in experiment [2] it was 170 nM; in experiment [3], 800 nM.

Regarding `CCC1(OC(=O)C(NC(=O)C(CCCCN)NC(=S)Nc2ccc(N)cc2)C(C)C)C(=O)OCc2c1cc1n(c2=O)Cc2cc3ccccc3nc2-1` (stereo not drawn) [4.18), 20-O-[N^α-(4-Amino-phenylamino-thiocarbonyl)-lysyl-valyl]-camptothecin, hydrochloride], the IC50 in experiment [1] was 300 nM; in experiment [2], 120 nM; in experiment [3] it was 400 nM.

Regarding `CCC1(OC(=O)C(NC(=O)C(CCCCN)NC(=S)N(C)c2ccccc2)C(C)C)C(=O)OCc2c1cc1n(c2=O)Cc2cc3ccccc3nc2-1` (stereo not drawn) [4.8), 20-O-[N^α-(Phenyl-methyl-amino-thiocarbonyl)-lysyl-valyl]-camptothecin, hydrochloride], the IC50 turned out to be 300 nM in experiment [1], 150 nM in experiment [2] and 800 nM in experiment [3].

Regarding `CC[C@@]1(OC(=O)C(NC(=O)C(CCCCN)NC(=S)Nc2ccc(C(=O)O)cc2)C(C)C)C(=O)OCc2c1cc1n(c2=O)Cc2cc3ccccc3nc2-1` (stereo partly drawn) [4.5), 20-O-[N^α-(4-Carboxy-phenylamino-thiocarbonyl)-lysyl-valyl]-camptothecin, hydrochloride], the IC50 in experiment [1] was determined as 300 nM; in experiment [2] it was 200 nM; in experiment [3], 800 nM.

On to `CC[C@@]1(OC(=O)C(NC(=O)C(CCCCN)NC(=S)Nc2ccccc2O)C(C)C)C(=O)OCc2c1cc1n(c2=O)Cc2cc3ccccc3nc2-1` (stereo partly drawn) [4.13), 20-O-[N^α-(2-Hydroxy-phenylamino-thiocarbonyl)-lysyl-valyl]-camptothecin, hydrochloride], for which the results for the IC50 in experiment [1], in experiment [2] and in experiment [3] were 60 nM, 40 nM and 200 nM, respectively.

As for `COc1cccc2c1C(=O)c1c(O)c3c(c(O)c1C2=O)C[C@@](O)(C(=O)CO)C[C@@H]3O[C@H]1C[C@H](NC(=O)C(C)NC(=O)C(CCCCN)NC(=S)Nc2ccc(O)cc2)[C@H](O)[C@H](C)O1` (stereo partly drawn) [3), N-[N^α-(4-Hydroxy-phenylamino-thiocarbonyl)-lysyl-alanyl]-doxorubicin], the IC50 in experiment [1] came to 3000 nM; in experiment [2], 2000 nM; in experiment [3] it was 1000 nM.

In the case of `CCC1(OC(=O)C(Cc2ccccc2)NC(=O)C(CCCCN)NC(=S)Nc2ccc(O)cc2)C(=O)OCc2c1cc1n(c2=O)Cc2cc3ccccc3nc2-1` (stereo not drawn) [4.3), 20-O-[N^α-(4-Hydroxy-phenylamino-thiocarbonyl)-lysyl-phenyl-alanyl]-camptothecin], the IC50 in experiment [1] is 20 nM; in experiment [2], 20 nM; in experiment [3], 100 nM.

Turning to `CC[C@@]1(OC(=O)C(C)NC(=O)C(CCCCN)NC(=S)Nc2ccc(O)cc2)C(=O)OCc2c1cc1n(c2=O)Cc2cc3ccccc3nc2-1` (stereo partly drawn) [4.1), 20-O-[N^α-(4-Hydroxy-phenylamino-thiocarbonyl)-lysyl-alanyl]-camptothecin], the values for the concentration for half-maximal inhibition (IC50) in experiment [1], in experiment [2] and in experiment [3] were 10 nM, 20 nM and 100 nM, respectively.

For `CCc1c2c(nc3ccccc13)-c1cc3c(c(=O)n1C2)COC(=O)C3(CC)OC(=O)C(C)NC(=O)C(CCCCNC(=S)Nc1ccc(O)cc1)NC(=S)Nc1ccc(O)cc1` (stereo not drawn) [5.1), 7-Ethyl-20-O-[N^α,N^ε-bis-(4-hydroxy-phenylamino-thiocarbonyl)-lysyl-alanyl]-camptothecin], the IC50 in experiment [1] came out at 25 nM; in experiment [2], 20 nM; in experiment [3], 50 nM.

`NCCC(NC(=S)Nc1ccc(O)cc1)C(=O)NC1C=CCC2CN(c3c(F)cc4c(=O)c(C(=O)O)cn(C5CC5)c4c3Cl)CC21` (racemic) [2.3), N-[N^α-(4-Hydroxy-phenylamino-thiocarbonyl)-α,γ-diaminobutyryl]-quinolone-a, hydrochloride]: the results for the half-inhibitory concentration (IC50) in experiment [1], in experiment [2] and in experiment [3] were 900 nM, 700 nM and 200 nM, respectively.

As to `CCC1(O)C(=O)OCc2c1cc1n(c2=O)Cc2c-1nc1ccccc1c2COC(=O)[C@@H](NC(=O)[C@H](CCCCN)NC(=S)Nc1ccc(O)cc1)C(C)C` (stereo partly drawn) [7), 7-[N^α-(4-Hydroxy-phenylamino-thiocarbonyl)-lysyl-valyloxymethyl]-camptothecin, hydrochloride], the figures for the IC50 in experiment [1], in experiment [2] and in experiment [3] were 60 nM, 80 nM and 1000 nM, respectively.

For the molecule `CCC1(OC(=O)C(NC(=O)C(CCCCN)NC(=S)Nc2cccc(OC)c2)C(C)C)C(=O)OCc2c1cc1n(c2=O)Cc2cc3ccccc3nc2-1` (stereo not drawn) [4.15), 20-O-[N^α-(3-Methoxy-phenylamino-thiocarbonyl)-lysyl-valyl]-camptothecin, hydrochloride], the figures for the 50% inhibitory concentration (IC50) in experiment [1], in experiment [2] and in experiment [3] were 90 nM, 60 nM and 200 nM, respectively.
